Test results published in patent US5814631A, “Quinazoline derivatives and applications thereof” (Suntory Limited, priority 1995, dated 1998).
Read-outs that look alike come from different tables or passages of the source.

Legend:
human heart chymase [1] = molecular target: T1, human heart chymase (Homo sapiens, UniProt P23946); settings: read-out: Chymase inhibitive activity (IC50), Ang I substrate, 37° C., 30 min, pH 7.5
T1 sequence (P23946 22-247): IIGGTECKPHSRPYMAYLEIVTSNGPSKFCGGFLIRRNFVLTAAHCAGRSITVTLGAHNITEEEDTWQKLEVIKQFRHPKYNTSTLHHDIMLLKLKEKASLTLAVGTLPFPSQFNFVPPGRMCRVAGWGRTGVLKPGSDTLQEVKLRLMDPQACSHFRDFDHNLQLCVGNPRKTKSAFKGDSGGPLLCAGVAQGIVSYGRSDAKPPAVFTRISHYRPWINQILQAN
Description: (§1) That is, to 10 μl of a 20 mM trisphosphate buffer (pH 7.5) containing 2MKCl were added 10 μl of purified chymase and 5 μl of a dimethylsulfoxide (hereinafter referred to as DMSO) solution of the test sample. The mixture was preincubated at 37° C. for 10 minutes, then 25 μl of a 1 mM Ang I solution was added and the mixture preincubated at 37° C. for 30 minutes. Next, 50 μl of 30% acetic acid was added to stop the enzymatic reaction. At the same time, a blind test was performed by adding, instead of the test sample solution, 5 μl of DMSO and performing the same reaction.
(§2) The reacted solution was subjected to high performance liquid chromatography using Develosil ODS-5 (made by Nomura Kagaku, .phi.4.6 mm×150 mm) and developed at a flow rate of 2.0 ml/min in 0.05% TFA by a straight concentration gradient raising the acetonitrile from 0% to 60% over 10 minutes. This was monitored by the absorbance at 210 nm and the peaks identified by comparison with standard samples of Ang I and Ang II. The peak areas were measured by an integrating meter to quantitatively analyze the Ang I and Ang II and calculate the chymase activity.

[2] = molecular target: T2, bovine pancreatic α-chymotrypsin (Bos taurus, UniProt P00766); experiment: Measurement of chymotrypsin inhibitive activity (Ang I, HPLC); type: biochemical; settings: for IC50: bovine pancreatic α-chymotrypsin, Ang I substrate, 37° C., 15 min, pH 7.5; for inhibition at 100 µM: percent inhibition at 100 μM
T2 construct: purchased Sigma Co. Type II; host or cells: bovine pancreas

in vivo = settings: mouse, po
[3] = molecular target: T3, human neutrophil derived cathepsin G (Homo sapiens, UniProt P08311); experiment: Measurement of cathepsin G inhibitive activity (conversion of Ang I to Ang II, HPLC); type: biochemical; settings: Ang I substrate, 37° C., 30 min, pH 7.5
T3 sequence (P08311 21-244 limits assumed): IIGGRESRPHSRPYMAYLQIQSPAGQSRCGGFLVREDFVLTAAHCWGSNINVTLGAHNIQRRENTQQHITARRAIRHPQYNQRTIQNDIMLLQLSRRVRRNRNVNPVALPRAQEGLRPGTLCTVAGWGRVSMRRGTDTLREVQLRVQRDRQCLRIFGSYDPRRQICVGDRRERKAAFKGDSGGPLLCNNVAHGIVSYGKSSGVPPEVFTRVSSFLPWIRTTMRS

human heart chymase [4] = molecular target: T1, human heart chymase; experiment: biochemical; settings: Chymase inhibitive activity (IC50), Ang I substrate, 37° C., 30 min, pH 7.5
Description: as §1, §2

chymase = settings: canine, simian, and human arterial tissue; cited from earlier work
[5] = tested on: vascular restenosis after the operation of PTCA; settings: random multifacility clinical study, Europe, placebo control; cited from earlier work

IC50 [2] | IC50 [3] | IC50 (human heart chymase [4]) | Compound | also measured
– | – | – | 3(4-chlorobenzenesulfonyl)-1-phenethyl-2,4(1H,3H)-quinazolinedione [Example 129] | IC50 (human heart chymase [1]): 3.2 µM
– | – | – | Cc1cccc2[nH]c(=O)n(S(=O)(=O)c3ccc(Cl)cc3)c(=O)c12 [Example 2, 3-(4-chlorobenzenesulfonyl)-5-methyl-2,4(1H,3H)-quinazolinedione] | LD50 at 24 h (in vivo): ≥ 1000 mg/kg; selectivity ratio at 24 h (in vivo): ≥ 50
4.8 µM | 0.79 µM | 2.4 µM | O=C(O)c1cccc(S(=O)(=O)n2c(=O)[nH]c3cc(Cl)ccc3c2=O)c1 [Example 15, 3-(3-carboxybenzenesulfonyl)-7-chloro-2,4(1H,3H)-quinazolinedione] | –
0.4 µM | 0.16 µM | 0.2 µM | COC(=O)c1ccc(S(=O)(=O)n2c(=O)[nH]c3cc(Cl)ccc3c2=O)cc1 [Example 19, 7-chloro-3-(4-methoxycarbonylbenzenesulfonyl)-2,4(1H,3H)-quinazolinedione] | –
8.5 µM | 37 µM | 30 µM | Cc1cc2[nH]c(=O)n(S(=O)(=O)c3ccc(Cl)cc3)c(=O)c2cc1C [Example 21, 3-(4-chlorobenzenesulfonyl)-6,7-dimethyl-2,4(1H,3H)-quinazolinedione] | –
12 µM | 3.8 µM | 1.6 µM | O=c1[nH]c2ccccc2c(=O)n1S(=O)(=O)c1ccc(Cl)cc1 [Example 23, 3-(4-chlorobenzenesulfonyl)-2,4(1H,3H)-quinazolinedione] | –
– | 16 µM | 7 µM | Cn1c(=O)n(S(=O)(=O)c2ccc(Cl)cc2)c(=O)c2ccc(Cl)cc21 [Example 27, 7-chloro-3-(4-chlorobenzenesulfonyl)-1-methyl-2,4(1H,3H)-quinazolinedione] | inhibition at 100 µM [2]: 27%
– | 14 µM | 3.3 µM | O=C(O)Cn1c(=O)n(S(=O)(=O)c2ccc(Cl)cc2)c(=O)c2ccc(Cl)cc21 [Example 29, 1-carboxymethyl-7-chloro-3-(4-chlorobenzenesulfonyl)-2,4(1H,3H)-quinazolinedione] | inhibition at 100 µM [2]: 46.5%
5.7 µM | 1.1 µM | 1.7 µM | O=c1[nH]c2cc(F)ccc2c(=O)n1S(=O)(=O)c1ccc(Cl)cc1 [Example 31, 3-(4-chlorobenzenesulfonyl)-7-fluoro-2,4(1H,3H)-quinazolinedione] | –
4.6 µM | 3.6 µM | 1.9 µM | O=c1[nH]c2ccc(F)cc2c(=O)n1S(=O)(=O)c1ccc(Cl)cc1 [Example 33, 3-(4-chlorobenzenesulfonyl)-6-fluoro-2,4(1H,3H)-quinazolinedione] | –
6.1 µM | 1.2 µM | 1.3 µM | Cc1ccc(S(=O)(=O)n2c(=O)[nH]c3cc(Cl)ccc3c2=O)cc1 [Example 37, 7-chloro-3-(4-toluenesulfonyl)-2,4(1H,3H)-quinazolinedione] | –
– | – | – | Nc1ncc(NC(=O)Cn2c(=O)n(S(=O)(=O)c3ccc(Cl)cc3)c(=O)c3ccc(Cl)cc32)cn1 [Example 87, [7-chloro-3-(4-chlorobenzenesulfonyl)-2,4(1H,3H)-quinazolinedion-1-yl]-N-(4-(2-aminopyrimidinyl))acetamide] | IC50 (human heart chymase [1]): 0.13 µM
– | – | – | O=C(Cn1c(=O)n(S(=O)(=O)c2ccc(Cl)cc2)c(=O)c2ccc(Cl)cc21)Nc1cc[nH]c(=O)n1 [Example 88, [7-chloro-3-(4-chlorobenzenesulfonyl)-2,4(1H,3H)-quinazolinedion-1-yl]-N-cytosinacetamide] | IC50 (human heart chymase [1]): 0.2 µM
– | – | – | CC(C)C[C@H](NC(=O)[C@@H](NC(=O)N[C@@H](Cc1ccccc1)C(=O)O)[C@@H]1CCN=C(N)N1)C(=O)N[C@H](C=O)Cc1ccccc1 [chymostatin] | inhibition of the enzymatic activity of chymase, in words (chymase): inhibited
– | – | – | CCOC(=O)[C@H](CCc1ccccc1)N[C@H]1CCCN2CCC[C@@H](C(=O)O)N2C1=O [cilazapril] | prophylactic effect on vascular restenosis after PTCA versus placebo [5]: no statistically significant difference

Compound | IC50 [2] | IC50 [3] | IC50 (human heart chymase [4]) | also measured
O=c1[nH]c2cc(Cl)ccc2c(=O)n1S(=O)(=O)c1ccc(Cl)cc1 [Example 1, 7-chloro-3-(-4-chlorobenzenesulfonyl)-2,4(1H,3H)-quinazolinedione] | 1.5 µM | 0.52 µM | – | LD50 at 24 h (in vivo): ≥ 1000 mg/kg
CC(C)(C)OC(=O)Cn1c(=O)n(S(=O)(=O)c2ccc(Cl)cc2)c(=O)c2ccc(Cl)cc21 [Example 25, 1-t-butoxycarbonylmethyl-7-chloro-3-(4-chlorobenzenesulfonyl)-2,4(1H,3H)-quinazolinedione] | – | 37 µM | 6.3 µM | inhibition at 100 µM [2]: 34.5%
